From patent publication EP4806891A1 (Kangbaida (Sichuan) Biotechnology Co., Ltd., priority 2023, dated 2025)

Target: T1, HEK-Blue-hTLR8 cells (Homo sapiens, UniProt Q9NR97)
T1 construct: expressed in transfected cells; host or cells: HEK-Blue-hTLR8 cells (HEK293-derived reporter line)
T1 sequence (Q9NR97 27-1041): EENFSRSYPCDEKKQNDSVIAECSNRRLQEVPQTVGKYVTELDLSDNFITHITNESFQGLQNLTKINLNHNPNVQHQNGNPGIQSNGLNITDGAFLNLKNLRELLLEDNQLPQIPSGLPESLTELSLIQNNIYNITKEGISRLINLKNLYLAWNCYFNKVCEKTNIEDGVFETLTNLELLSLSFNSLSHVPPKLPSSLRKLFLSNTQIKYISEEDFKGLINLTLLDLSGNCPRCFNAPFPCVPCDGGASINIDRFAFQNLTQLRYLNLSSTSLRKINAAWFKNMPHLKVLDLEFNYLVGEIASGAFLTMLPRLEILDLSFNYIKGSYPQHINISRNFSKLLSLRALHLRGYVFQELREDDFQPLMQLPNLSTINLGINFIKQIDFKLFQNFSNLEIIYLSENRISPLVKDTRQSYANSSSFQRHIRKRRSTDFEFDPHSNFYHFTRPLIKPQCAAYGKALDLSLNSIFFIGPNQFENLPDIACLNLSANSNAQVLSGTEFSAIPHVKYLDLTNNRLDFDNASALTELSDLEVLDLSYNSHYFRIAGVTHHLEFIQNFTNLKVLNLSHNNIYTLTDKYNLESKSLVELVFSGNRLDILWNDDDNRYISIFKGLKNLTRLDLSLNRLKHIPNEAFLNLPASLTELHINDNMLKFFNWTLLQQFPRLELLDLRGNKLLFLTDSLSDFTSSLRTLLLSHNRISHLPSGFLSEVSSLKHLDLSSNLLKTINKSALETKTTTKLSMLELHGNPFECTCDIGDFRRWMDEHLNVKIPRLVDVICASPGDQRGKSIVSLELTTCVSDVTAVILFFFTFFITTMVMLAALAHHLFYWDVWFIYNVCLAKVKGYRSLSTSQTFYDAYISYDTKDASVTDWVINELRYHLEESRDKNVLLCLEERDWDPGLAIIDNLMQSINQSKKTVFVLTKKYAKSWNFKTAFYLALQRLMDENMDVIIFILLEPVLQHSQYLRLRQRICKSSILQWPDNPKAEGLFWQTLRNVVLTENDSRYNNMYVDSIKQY
Experiment: HEK-Blue-hTLR8 cell inhibition assay
Assay type: cell-based
Conditions: R848 3 µM, 16 h, OD 620 nm, read-out: TLR8 IC50
Summary of the method: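 Cells were pre-incubated 4 h, then co-treated 16 h at 37 °C with compound (10 doses, 0.5–10000 nM final) plus R848 (0.8 µM for TLR7, 3 µM for TLR8) or ODN2006 (1 µM, TLR9). Reporter OD620 gave inhibition relative to DMSO blank and agonist-only controls; IC50 came from curve fitting.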

Row | IC50 [µM] | SMILES
1 | < 0.1 | CN1CCC(F)(c2nnc([C@]34CN(c5ccc(C#N)c6ncccc56)C[C@@]3(C(F)(F)F)C4)o2)C1 (stereo partly drawn) [Compound 47, 5-((1S,5R)-1-(5-(3-fluoro-1-methylpyrrolidin-3-yl)-1,3,4-oxadiazol-2-yl)-5-(trifluoromethyl)-3-azabicyclo[3.1.0]hexan-3-yl)quinoline-8-carbonitrile]
2 | < 0.1 | CN1CC(F)(c2nnc([C@]34CN(c5ccc(C#N)c6ncccc56)C[C@@]3(C(F)(F)F)C4)o2)C1 [Compound 49, 5-((1S,5R)-1-(5-(3-fluoro-1-methylazetidin-3-yl)-1,3,4-oxadiazol-2-yl)-5-(trifluoromethyl)-3-azabicyclo[3.1.0]hexan-3-yl)quinoline-8-carbonitrile]
3 | < 0.1 | CN1CCC(c2nnc([C@]34CN(c5ccc(C#N)c6ncccc56)C[C@@]3(C(F)(F)F)C4)o2)C(F)C1 (stereo partly drawn) [Compound 50, 5-((1S,5R)-1-(5-(3-fluoro-1-methylpiperidin-4-yl)-1,3,4-oxadiazol-2-yl)-5-(trifluoromethyl)-3-azabicyclo[3.1.0]hexan-3-yl)quinoline-8-carbonitrile]
4 | < 0.1 | N#Cc1ccc(N2C[C@]3(c4nnc(C56CCC(N)(CC5)CC6)o4)C[C@]3(C(F)(F)F)C2)c2cccnc12 [Compound 52, 5-((1S,5R)-1-(5-(4-aminobicyclo[2.2.2]octan-1-yl)-1,3,4-oxadiazol-2-yl)-5-(trifluoromethyl)-3-azabicyclo[3.1.0]hexan-3-yl)quinoline-8-carbonitrile]
5 | < 0.1 | CN(C)C12CCC(c3nnc([C@]45CN(c6ccc(C#N)c7ncccc67)C[C@@]4(C(F)(F)F)C5)o3)(CC1)CC2 [Compound 53, 5-((1S,5R)-1-(5-(4-(dimethylamino)bicyclo[2.2.2]octan-1-yl)-1,3,4-oxadiazol-2-yl)-5-(trifluoromethyl)-3-azabicyclo[3.1.0]hexan-3-yl)quinoline-8-carbonitrile]
6 | < 0.1 | N#Cc1ccc(N2C[C@]3(c4nnc(C56CCC(NC(=O)[C@@H]7COCCN7)(CC5)CC6)o4)C[C@]3(C(F)(F)F)C2)c2cccnc12 [Compound 54, (S)-N-(4-(5-((1S,5R)-3-(8-cyanoquinolin-5-yl)-5-(trifluoromethyl)-3-azabicyclo[3.1.0]hexan-1-yl)-1,3,4-oxadiazol-2-yl)bicyclo[2.2.2]octan-1-yl)morpholine-3-carboxamide]
7 | < 0.1 | N#Cc1ccc(N2C[C@]3(c4nnc([C@H]5CN(CC(N)=O)CCO5)o4)C[C@]3(C(F)(F)F)C2)c2cccnc12 [Compound 56, 2-((R)-2-(5-((1S,5R)-3-(8-cyanoquinolin-5-yl)-5-(trifluoromethyl)-3-azabicyclo[3.1.0]hexan-1-yl)-1,3,4-oxadiazol-2-yl)morpholino)acetamide]
8 | < 0.1 | CN1CCC(c2nnc([C@]34CN(c5ccc(C#N)n6ncc(F)c56)C[C@@]3(C(F)(F)F)C4)o2)CC1 [Compound 57, 3-fluoro-4-((1S,5R)-1-(5-(1-methylpiperidin-4-yl)-1,3,4-oxadiazol-2-yl)-5-(trifluoromethyl)-3-azabicyclo[3.1.0]hexan-3-yl)pyrazolo[1,5-a]pyridine-7-carbonitrile]
9 | < 1 | CN1CCC(c2nnc([C@]34CN(c5ccc(C#N)n6nccc56)C[C@@]3(C(F)(F)F)C4)o2)CC1 [Compound 59, 4-((1S,5R)-1-(5-(1-methylpiperidin-4-yl)-1,3,4-oxadiazol-2-yl)-5-(trifluoromethyl)-3-azabicyclo[3.1.0]hexan-3-yl)pyrazolo[1,5-a]pyridine-7-carbonitrile]

Row | SMILES | IC50 [µM]
10 | CN(C)CCc1nnc([C@]23CN(c4ccc(C#N)c5ncccc45)C[C@@]2(C(F)(F)F)C3)o1 [Compound 51, 5-((1S,5R)-1-(5-(2-(dimethylamino)ethyl)-1,3,4-oxadiazol-2-yl)-5-(trifluoromethyl)-3-azabicyclo[3.1.0]hexan-3-yl)quinoline-8-carbonitrile] | < 0.1
